Measured values: ChEMBL document CHEMBL1255442, “Assay of colistin and colistin methanesulfonate in plasma and urine by liquid chromatography-tandem mass spectrometry” (Antimicrob Agents Chemother, 2010)

Experiments:
Assay type in all cases: ADME, organism-based
Plasma [1] = assay: Stability of the compound in healthy human spiked plasma assessed as initial Colistin methanesulfonate A at 80 mg, iv administered for 60 mins measured post 2 months of incubation at -20 degC by LC-MS/MS assay; settings: in vivo, 1 h, pooled result: one value given for 9 cell lines, strains, targets or settings
Plasma [2] = assay: Stability of the compound in healthy human spiked plasma assessed as initial Colistin methanesulfonate A at 80 mg, iv administered for 60 mins measured under acidic pretreatment by LC-MS/MS assay; settings: in vivo, 1 h
Plasma [3] = assay: Stability of the compound in healthy human spiked plasma assessed as initial Colistin methanesulfonate A at 80 mg, iv administered for 60 mins measured after 2 freeze-thaw cycles by LC-MS/MS assay; settings: in vivo, 1 h
Plasma [4] = assay: Stability of the compound in healthy human spiked plasma assessed as initial Colistin methanesulfonate B at 80 mg, iv administered for 60 mins measured post 2 months of incubation at -20 degC by LC-MS/MS assay; settings: in vivo, 1 h, pooled result: one value given for 9 cell lines, strains, targets or settings
Plasma [5] = assay: Stability of the compound in healthy human spiked plasma assessed as initial Colistin methanesulfonate B at 80 mg, iv administered for 60 mins measured under acidic pretreatment by LC-MS/MS assay; settings: in vivo, 1 h
Plasma [6] = assay: Stability of the compound in healthy human spiked plasma assessed as initial Colistin methanesulfonate B at 80 mg, iv administered for 60 mins measured after 2 freeze-thaw cycles by LC-MS/MS assay; settings: in vivo, 1 h
Plasma [7] = assay: Stability of the compound in healthy human spiked plasma assessed as Colistin methanesulfonate A at 80 mg, iv administered for 60 mins measured post 2 months of incubation at -20 degC by LC-MS/MS assay; settings: in vivo, 1 h
Plasma [8] = assay: Stability of the compound in healthy human spiked plasma assessed as Colistin methanesulfonate A at 80 mg, iv administered for 60 mins measured under nonacidic pretreatment by LC-MS/MS assay; settings: in vivo, 1 h
Plasma [9] = assay: Stability of the compound in healthy human spiked plasma assessed as Colistin methanesulfonate A at 80 mg, iv administered for 60 mins measured under acidic pretreatment by LC-MS/MS assay; settings: in vivo, 1 h
Plasma [10] = assay: Stability of the compound in healthy human spiked plasma assessed as Colistin methanesulfonate A at 80 mg, iv administered for 60 mins measured after 2 freeze-thaw cycles by LC-MS/MS assay; settings: in vivo, 1 h
Plasma [11] = assay: Stability of the compound in healthy human spiked plasma assessed as Colistin methanesulfonate A at 80 mg, iv administered for 60 mins measured after 1 hr in room temperature by LC-MS/MS assay; settings: in vivo
Plasma [12] = assay: Stability of the compound in healthy human spiked plasma assessed as Colistin methanesulfonate A at 80 mg, iv administered for 60 mins measured after 4 hrs in room temperature by LC-MS/MS assay; settings: in vivo
Plasma [13] = assay: Stability of the compound in healthy human spiked plasma assessed as Colistin methanesulfonate A at 80 mg, iv administered for 60 mins measured after 5 hrs at 4 degC by LC-MS/MS assay; settings: in vivo
[14] = Stability of the compound in healthy human spiked urine assessed as Colistin methanesulfonate A at 80 mg, iv administered for 60 mins measured after 2 freeze-thaw cycles by LC-MS/MS assay; settings: in vivo, 1 h
[15] = Stability of the compound in healthy human spiked urine assessed as Colistin methanesulfonate A at 80 mg, iv administered for 60 mins measured at room temperature by LC-MS/MS assay; settings: in vivo, 1 h
[16] = Stability of the compound in healthy human spiked urine assessed as Colistin methanesulfonate A at 80 mg, iv administered for 60 mins measured after 1 hr in room temperature by LC-MS/MS assay; settings: in vivo
[17] = Stability of the compound in healthy human spiked urine assessed as Colistin methanesulfonate A at 80 mg, iv administered for 60 mins measured after 4 hrs in room temperature by LC-MS/MS assay; settings: in vivo
Plasma [18] = assay: Stability of the compound in healthy human spiked plasma assessed as Colistin methanesulfonate B at 80 mg, iv administered for 60 mins measured post 2 months of incubation at -20 degC by LC-MS/MS assay; settings: in vivo, 1 h
Plasma [19] = assay: Stability of the compound in healthy human spiked plasma assessed as Colistin methanesulfonate B at 80 mg, iv administered for 60 mins measured under nonacidic pretreatment by LC-MS/MS assay; settings: in vivo, 1 h
Plasma [20] = assay: Stability of the compound in healthy human spiked plasma assessed as Colistin methanesulfonate B at 80 mg, iv administered for 60 mins measured under acidic pretreatment by LC-MS/MS assay; settings: in vivo, 1 h
Plasma [21] = assay: Stability of the compound in healthy human spiked plasma assessed as Colistin methanesulfonate B at 80 mg, iv administered for 60 mins measured after 2 freeze-thaw cycles by LC-MS/MS assay; settings: in vivo, 1 h
Plasma [22] = assay: Stability of the compound in healthy human spiked plasma assessed as Colistin methanesulfonate B at 80 mg, iv administered for 60 mins measured after 1 hr in room temperature by LC-MS/MS assay; settings: in vivo
Plasma [23] = assay: Stability of the compound in healthy human spiked plasma assessed as Colistin methanesulfonate B at 80 mg, iv administered for 60 mins measured after 4 hrs in room temperature by LC-MS/MS assay; settings: in vivo
Plasma [24] = assay: Stability of the compound in healthy human spiked plasma assessed as Colistin methanesulfonate B at 80 mg, iv administered for 60 mins measured after 5 hrs at 4 degC by LC-MS/MS assay; settings: in vivo
[25] = Stability of the compound in healthy human spiked urine assessed as Colistin methanesulfonate B at 80 mg, iv administered for 60 mins measured after 2 freeze-thaw cycles by LC-MS/MS assay; settings: in vivo, 1 h
[26] = Stability of the compound in healthy human spiked urine assessed as Colistin methanesulfonate B at 80 mg, iv administered for 60 mins measured at room temperature by LC-MS/MS assay; settings: in vivo, 1 h
[27] = Stability of the compound in healthy human spiked urine assessed as Colistin methanesulfonate B at 80 mg, iv administered for 60 mins measured after 1 hr in room temperature by LC-MS/MS assay; settings: in vivo
[28] = Stability of the compound in healthy human spiked urine assessed as Colistin methanesulfonate B at 80 mg, iv administered for 60 mins measured after 4 hrs in room temperature by LC-MS/MS assay; settings: in vivo
Plasma [29] = assay: Stability of the compound in healthy human spiked plasma assessed as Colistin methanesulfonate A degradation at 80 mg, iv administered for 60 mins measured post 2 months of incubation at -20 degC by LC-MS/MS assay; settings: in vivo, 1 h
Plasma [30] = assay: Stability of the compound in healthy human spiked plasma assessed as Colistin methanesulfonate A degradation at 80 mg, iv administered for 60 mins measured under nonacidic pretreatment by LC-MS/MS assay; settings: in vivo, 1 h
Plasma [31] = assay: Stability of the compound in healthy human spiked plasma assessed as Colistin methanesulfonate A degradation at 80 mg, iv administered for 60 mins measured under acidic pretreatment by LC-MS/MS assay; settings: in vivo, 1 h
Plasma [32] = assay: Stability of the compound in healthy human spiked plasma assessed as Colistin methanesulfonate A degradation at 80 mg, iv administered for 60 mins measured after 2 freeze-thaw cycles by LC-MS/MS assay; settings: in vivo, 1 h
Plasma [33] = assay: Stability of the compound in healthy human spiked plasma assessed as Colistin methanesulfonate A degradation at 80 mg, iv administered for 60 mins measured after 1 hr in room temperature by LC-MS/MS assay; settings: in vivo
Plasma [34] = assay: Stability of the compound in healthy human spiked plasma assessed as Colistin methanesulfonate A degradation at 80 mg, iv administered for 60 mins measured after 4 hrs in room temperature by LC-MS/MS assay; settings: in vivo
Plasma [35] = assay: Stability of the compound in healthy human spiked plasma assessed as Colistin methanesulfonate A degradation at 80 mg, iv administered for 60 mins measured after 5 hrs at 4 degC by LC-MS/MS assay; settings: in vivo
[36] = Stability of the compound in healthy human spiked urine assessed as Colistin methanesulfonate A degradation at 80 mg, iv administered for 60 mins measured after 2 freeze-thaw cycles by LC-MS/MS assay; settings: in vivo, 1 h
[37] = Stability of the compound in healthy human spiked urine assessed as Colistin methanesulfonate A degradation at 80 mg, iv administered for 60 mins measured at room temperature by LC-MS/MS assay; settings: in vivo, 1 h
[38] = Stability of the compound in healthy human spiked urine assessed as Colistin methanesulfonate A degradation at 80 mg, iv administered for 60 mins measured after 1 hr in room temperature by LC-MS/MS assay; settings: in vivo
[39] = Stability of the compound in healthy human spiked urine assessed as Colistin methanesulfonate A degradation at 80 mg, iv administered for 60 mins measured after 4 hrs in room temperature by LC-MS/MS assay; settings: in vivo
Plasma [40] = assay: Stability of the compound in healthy human spiked plasma assessed as Colistin methanesulfonate B degradation at 80 mg, iv administered for 60 mins measured post 2 months of incubation at -20 degC by LC-MS/MS assay; settings: in vivo, 1 h
Plasma [41] = assay: Stability of the compound in healthy human spiked plasma assessed as Colistin methanesulfonate B degradation at 80 mg, iv administered for 60 mins measured under nonacidic pretreatment by LC-MS/MS assay; settings: in vivo, 1 h
Plasma [42] = assay: Stability of the compound in healthy human spiked plasma assessed as Colistin methanesulfonate B degradation at 80 mg, iv administered for 60 mins measured under acidic pretreatment by LC-MS/MS assay; settings: in vivo, 1 h
Plasma [43] = assay: Stability of the compound in healthy human spiked plasma assessed as Colistin methanesulfonate B degradation at 80 mg, iv administered for 60 mins measured after 2 freeze-thaw cycles by LC-MS/MS assay; settings: in vivo, 1 h
Plasma [44] = assay: Stability of the compound in healthy human spiked plasma assessed as Colistin methanesulfonate B degradation at 80 mg, iv administered for 60 mins measured after 1 hr in room temperature by LC-MS/MS assay; settings: in vivo
Plasma [45] = assay: Stability of the compound in healthy human spiked plasma assessed as Colistin methanesulfonate B degradation at 80 mg, iv administered for 60 mins measured after 4 hrs in room temperature by LC-MS/MS assay; settings: in vivo
Plasma [46] = assay: Stability of the compound in healthy human spiked plasma assessed as Colistin methanesulfonate B degradation at 80 mg, iv administered for 60 mins measured after 5 hrs at 4 degC by LC-MS/MS assay; settings: in vivo
[47] = Stability of the compound in healthy human spiked urine assessed as Colistin methanesulfonate B degradation at 80 mg, iv administered for 60 mins measured after 2 freeze-thaw cycles by LC-MS/MS assay; settings: in vivo, 1 h
[48] = Stability of the compound in healthy human spiked urine assessed as Colistin methanesulfonate B degradation at 80 mg, iv administered for 60 mins measured at room temperature by LC-MS/MS assay; settings: in vivo, 1 h
[49] = Stability of the compound in healthy human spiked urine assessed as Colistin methanesulfonate B degradation at 80 mg, iv administered for 60 mins measured after 1 hr in room temperature by LC-MS/MS assay; settings: in vivo
[50] = Stability of the compound in healthy human spiked urine assessed as Colistin methanesulfonate B degradation at 80 mg, iv administered for 60 mins measured after 4 hrs in room temperature by LC-MS/MS assay; settings: in vivo

Stability (Plasma [1]): 3.746 µg/mL
Stability (Plasma [2]): 7.492 µg/mL
Stability (Plasma [3]): 0.937 µg/mL
Stability (Plasma [4]): 1.254 µg/mL
Stability (Plasma [5]): 2.508 µg/mL
Stability (Plasma [6]): 0.313 µg/mL
Stability (Plasma [7]): Unstable
Stability (Plasma [8]): Unstable
Stability (Plasma [9]): 1.626 µg/mL
Stability (Plasma [10]): Unstable
Stability (Plasma [11]): 0.123 µg/mL
Stability (Plasma [12]): 0.519 µg/mL
Stability (Plasma [13]): Unstable
Stability [14]: 0.746 µg/mL
Stability [15]: 0.614 µg/mL
Stability [16]: 0.835 µg/mL
Stability [17]: 1.056 µg/mL
Stability (Plasma [18]): Unstable
Stability (Plasma [19]): Unstable
Stability (Plasma [20]): 0.485 µg/mL
Stability (Plasma [21]): Unstable
Stability (Plasma [22]): 0.029 µg/mL
Stability (Plasma [23]): 0.175 µg/mL
Stability (Plasma [24]): Unstable
Stability [25]: 0.18 µg/mL
Stability [26]: 0.143 µg/mL
Stability [27]: 0.211 µg/mL
Stability [28]: 0.268 µg/mL
Stability (Plasma [29]): Stable
Stability (Plasma [30]): Stable
Stability (Plasma [31]): 32.5%
Stability (Plasma [32]): Stable
Stability (Plasma [33]): 3.3%
Stability (Plasma [34]): 13.9%
Stability (Plasma [35]): Stable
Stability [36]: 19.9%
Stability [37]: 16.4%
Stability [38]: 22.3%
Stability [39]: 29.2%
Stability (Plasma [40]): Stable
Stability (Plasma [41]): Stable
Stability (Plasma [42]): 29.1%
Stability (Plasma [43]): Stable
Stability (Plasma [44]): 2.3%
Stability (Plasma [45]): 14%
Stability (Plasma [46]): Stable
Stability [47]: 14.4%
Stability [48]: 11.6%
Stability [49]: 16.8%
Stability [50]: 21.4%
Sequence: COLISTIMETHATE SODIUM
